According to US20230087994A1, “TARGETED BIFUNCTIONAL DEGRADERS” (YALE UNIVERSITY, priority 2019, published 2023):
Square brackets hold non-standard residues; d marks the D form. Peptide text beside a SMILES is read from it. * marks the point of attachment. Sta = CC(C)C[C@H](N)[C@@H](O)CC(=O)O; Isovaleryl = CC(C)CC(=O)*; Nle = CCCC[C@H](N)C(=O)O

Experiments:
[1] = tested on: HepG2 cells; experiment: Degradation of α-DNP antibody endocytosed via DNP-AF3 in HepG2 cells (PAGE, 50 kDa/25 kDa band ratio) and effect of protease inhibitors; type: cell-based, human; details: for inhibition of α-DNP antibody degradation, triplicate: 12 hours, FIG. 117; for inhibition of degradation of α-DNP antibody, repeat with selected conditions: 80 μM leupeptin, 10 and 100 μM ALLN, 15 μM pepstatin, FIG. 118, leupeptin not significant (p=0.0504); for toxicity to cells: pepstatin 5 μM after 24 hours, AEBSF 100 μM, ALLN 100 μM by 24 hours
Excerpt: First, reducing conditions were used to visualize antibody degradation via PAGE gel.

[2] = target: T1, human MIF (Homo sapiens, UniProt P14174); experiment: Depletion of human MIF from cell culture supernatant (sandwich ELISA); type: cell-based; design: host or cells: exogenous protein added to cell culture; details: for depletion of MIF from cell culture supernatant / depletion of human MIF from cell culture supernatant: human MIF 100 nM; for depletion of MIF from cell culture supernatant: MIF-AF2 at 40 nM, 200 nM, and 1 μM, FIG. 129; for depletion of human MIF from cell culture supernatant: FIG. 128A
T1 sequence (P14174 2-115 limits assumed): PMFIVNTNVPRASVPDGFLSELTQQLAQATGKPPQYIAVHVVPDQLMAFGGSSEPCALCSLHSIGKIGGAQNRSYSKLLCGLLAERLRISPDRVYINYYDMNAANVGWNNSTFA
Method: The ability of bifunctional MIF-binding molecules to mediate the depletion of human MIF from cell culture was investigated. In these assays, human MIF was present at a concentration of 100 nM, and a sandwich ELISA assay was utilized to measure the concentration of human MIF remaining in the cell culture supernatant. The closely related bifunctional molecules MIF-GN3, MIF-PEG2-GN3, and MIF-PEG4-GN3 were used, as well as the structurally dissimilar molecule MIF-NVS-PEG3-GN3. […] Based on the ease of its synthesis and its efficacy in this experiment, MIF-GN3 was utilized for further studies. It was next investigated whether the MIF inhibitor 3w mediates MIF depletion from cell culture supernatant. […] When cells were treated with 3w, no depletion of exogenous MIF protein was observed after 24 hours (FIG. 128B).

[3] = tested on: HepG2 cells; experiment: DNP-GN3-mediated endocytosis of fluorescently labeled α-DNP antibody by adherent HepG2 cells; type: cell-based, human; details: DNP-GN3-mediated uptake; FIG. 89
Method: It was next explored whether DNP-GN3 mediates the endocytosis of fluorescently labeled α-DNP antibody.
To explore the cellular mechanism of antibody uptake, cells were treated with chemical inhibitors of several endocytic pathways (FIG. 89).

[4] = tested on: HepG2 cells; experiment: DNP-AF3-mediated endocytosis of fluorescently labeled α-DNP antibody by HepG2 cells (flow cytometry); type: cell-based, human; details: 40 nM DNP-AF3, 100 nM antibody; FIG. 106
Method: The intracellular fluorescence of cells that were incubated at 37° C. with both fluorescently labeled α-DNP antibody and DNP-AF3 for a given amount of time was examined. Cells were then washed, removed from the plate with trypsin, and subjected to flow cytometry. Trypsin treatment is expected to cleave ASGPR and surface-bound α-DNP antibody from cells, and therefore the cellular fluorescence observed in these assays is expected to arise only from internalized antibodies.
It was then determined if reagents which inhibit ternary complex formation inhibit endocytosis mediated by DNP-AF3. In order to account for non-specific antibody association with cells, the mean fluorescence intensity of an aliquot of cells which had been treated with α-DNP antibody but not DNP-AF3 was subtracted from each reading. […] In the presence of 2.38 μM (0.1 mg/mL) ASOR, the cell population fluorescence was decreased to 4.66e5 (FIG. 105); at this ASOR concentration, ternary complex formation is decreased by approximately 70%. Because ternary complex is not inhibited completely at this concentration of ASOR, it is expected that productive endocytic events are still taking place.

[5] = tested on: HepG2 cells; experiment: MIF-GN3-mediated endocytosis of fluorescently labeled human MIF by HepG2 cells; details: 100 nM MIF, 200 nM MIF-GN3; FIG. 132
Method: Human MIF protein was fluorescently labeled with Alexa 488 NHS ester, then incubated with HepG2 cells in the presence of varying levels of MIF-GN3.
Next, inhibitors of various endocytic pathways were utilized to determine if MIF-GN3 mediates MIF endocytosis in a manner consistent with ASGPR (FIG. 132).

[6] = single replicate, FIG. 116, leupeptin 20 and 80, E64 50 and 10 μM, antipain 50 and 100 μM, aprotinin 400 or 800 nM, PMSF 100 or 500 μM, AEBSF 10 μM, ALLN 10 μM

Compound: O=S(=O)(F)Cc1ccccc1 [PMSF, Phenylmethylsulfonyl fluoride]
- inhibition of α-DNP antibody degradation, triplicate [1]: did not significantly inhibit
- inhibition of α-DNP antibody degradation, initial screen [1, 6]: not effective

Compound: O=C(CCCOc1ccc2nc(-c3cn(-c4ccc(O)c(F)c4)nn3)ccc2c1)NCCOCCC(=O)NCCOCCOCCOCCOC[C@]12CO[C@H](O1)[C@H](NC(=O)C(F)(F)F)[C@@H](O)[C@H]2O [MIF-AF1]
- depletion of MIF from cell culture supernatant [2]: not effective

Compound: C=C1[C@@H](C)[C@H]2[C@H](Cc3ccccc3)NC(=O)[C@]23[C@H](OC(C)=O)/C=C/[C@@](C)(O)C(=O)[C@@H](C)C/C=C/[C@H]3[C@@H]1O [cytochalasin D]
- effect of endocytic pathway inhibitors on intracellular fluorescence [3]: did not significantly decrease

Compound: CC(=O)NC1C(OCCOCCOCCNC(=O)CCOCC(COCCC(=O)NCCOCCOCCOC2OC(CO)C(O)C(O)C2NC(C)=O)(COCCC(=O)NCCOCCOCCOC2OC(CO)C(O)C(O)C2NC(C)=O)NC(=O)CNC(=O)COCCOCCOCCn2cc(COCCOCCOc3ccc(N4Cc5ccc(O)cc5OC4=O)cc3)nn2)OC(CO)C(O)C1O (stereo not drawn) [MIF-NVS-PEG3-GN3]
- depletion of human MIF from cell culture supernatant ([2]; 24 hours): effective at mediating the depletion of human MIF

Compound: CC(=O)N[C@@H](CC(C)C)C(=O)N[C@@H](CC(C)C)C(=O)N[C@H](C=O)CCCNC(=N)N [leupeptin, Leupeptin]
- inhibition of degradation of α-DNP antibody, repeat with selected conditions [1]: inhibited degradation
- inhibition of α-DNP antibody degradation, triplicate [1]: inhibit α-DNP antibody degradation at all concentrations tested
- inhibition of α-DNP antibody degradation, initial screen [1, 6]: effective

Compound: C=C1[C@@H](C)[C@H]2[C@H](Cc3ccccc3)NC(=O)[C@]23[C@H](OC(C)=O)/C=C/[C@@](C)(O)C(=O)[C@@H](C)C/C=C/[C@H]3[C@@H]1O [cytochalisin D (CytD)]
- effect of endocytic pathway inhibitors on fluorescence of the cell population [4]: non-significant decrease

Compound: Cl.N [ammonium chloride]
- effect of endocytic pathway inhibitors on MIF-GN3-mediated MIF endocytosis [5]: near background levels

Compound: CCCC[C@@H](C=O)NC(=O)[C@H](CC(C)C)NC(=O)[C@H](CC(C)C)NC(C)=O [ALLN] (Ac-Leu-Leu-[Nle]-aldehyde)
- inhibition of α-DNP antibody degradation, initial screen ([1]; 100 μM, 12 hour time point): strong inhibition
- inhibition of α-DNP antibody degradation, triplicate [1]: appeared effective
- inhibition of α-DNP antibody degradation, initial screen [1, 6]: not active

Compound: CC[C@@]1([C@@H]2O[C@@H]([C@H]3O[C@@](O)(CO)[C@H](C)C[C@@H]3C)C[C@@H]2C)CC[C@H]([C@]2(C)CC[C@]3(C[C@H](O)[C@@H](C)[C@@H]([C@@H](C)[C@@H](OC)[C@H](C)C(=O)O)O3)O2)O1 [monensin, Monensin]
- effect of endocytic pathway inhibitors on intracellular fluorescence [3]: significantly decreased
- effect of endocytic pathway inhibitors on MIF-GN3-mediated MIF endocytosis [5]: near background levels

Compound: CC(=O)NC1C(OCCOCCOCCNC(=O)CCOCC(COCCC(=O)NCCOCCOCCOC2OC(CO)C(O)C(O)C2NC(C)=O)(COCCC(=O)NCCOCCOCCOC2OC(CO)C(O)C(O)C2NC(C)=O)NC(=O)CNC(=O)COCCOCCOCCOCCNC(=O)CCCOc2ccc3nc(-c4cn(-c5ccc(O)c(F)c5)nn4)ccc3c2)OC(CO)C(O)C1O (stereo not drawn) [MIF-PEG4-GN3]
- depletion of human MIF from cell culture supernatant ([2]; 24 hours): effective at mediating the depletion of human MIF

Compound: CC(C)C[C@H](NC(=O)[C@@H](O)[C@H](N)Cc1ccccc1)C(=O)O [Bestatin]
- inhibition of α-DNP antibody degradation, triplicate [1]: did not significantly inhibit
- inhibition of α-DNP antibody degradation, initial screen [1, 6]: not effective

Compound: Aprotinin
- inhibition of α-DNP antibody degradation, triplicate [1]: did not significantly inhibit
- inhibition of α-DNP antibody degradation, initial screen [1, 6]: not effective

Compound: Cl.NCCc1ccc(S(=O)(=O)F)cc1 [AEBSF, 4-(2-aminoethyl)benzeneulfonyl fluoride hydrochloride]
- inhibition of α-DNP antibody degradation, triplicate [1]: did not significantly inhibit
- toxicity to cells [1]: toxic to cells
- inhibition of α-DNP antibody degradation, initial screen [1, 6]: not effective

Compound: O=C(CCOCC(COCCC(=O)NCCOCCOCCOCCOC[C@]12CO[C@H](O1)[C@H](NC(=O)C(F)(F)F)[C@@H](O)[C@H]2O)(COCCC(=O)NCCOCCOCCOCCOC[C@]12CO[C@H](O1)[C@H](NC(=O)C(F)(F)F)[C@@H](O)[C@H]2O)NC(=O)CCCOc1ccc2nc(-c3cn(-c4ccc(O)c(F)c4)nn3)ccc2c1)NCCOCCOCCOCCOC[C@]12CO[C@H](O1)[C@H](NC(=O)C(F)(F)F)[C@@H](O)[C@H]2O [MIF-AF3]
- molar equivalents of MIF protein depleted ([2]; 40 nM): 2.08 molar equivalents
- human MIF protein removed ([2]; 40 nM (4.0 pmol of molecule)): 8.32 pmol
- removal of MIF present in the cell culture supernatant ([2]; 40 nM (4.0 pmol of molecule)): 83.2%

Compound: CO/C1=C\C(C)=C\[C@@H](C)[C@@H](O)[C@@H](C)C/C(C)=C/C=C/[C@H](OC)[C@@H]([C@@H](C)[C@@H](O)[C@H](C)[C@@]2(O)C[C@@H](O)[C@H](C)[C@@H](C(C)C)O2)OC1=O [bafilomycin, Bafilomycin]
- effect of endocytic pathway inhibitors on intracellular fluorescence [3]: significantly decreased
- effect of endocytic pathway inhibitors on MIF-GN3-mediated MIF endocytosis [5]: near background levels

Compound: CCN(c1nc(N)c(C(=O)NC(=N)N)nc1Cl)C(C)C [EIPA]
- effect of endocytic pathway inhibitors on intracellular fluorescence [3]: did not significantly decrease
- effect of endocytic pathway inhibitors on MIF-GN3-mediated MIF endocytosis [5]: significantly inhibited uptake

Compound: OC[C@H]1O[C@@](CO)(O[C@H]2O[C@H](CO)[C@@H](O)[C@H](O)[C@H]2O)[C@@H](O)[C@@H]1O [sucrose]
- effect of endocytic pathway inhibitors on intracellular fluorescence [3]: significantly decreased
- effect of endocytic pathway inhibitors on MIF-GN3-mediated MIF endocytosis [5]: near background levels

Compound: CCN(CC)CCCC(C)Nc1ccnc2cc(Cl)ccc12 (stereo not drawn) [chloroquine, Chloroquine]
- effect of endocytic pathway inhibitors on intracellular fluorescence [3]: significantly decreased
- effect of endocytic pathway inhibitors on MIF-GN3-mediated MIF endocytosis [5]: near background levels

Compound: O=C(CCOCC(COCCC(=O)NCCOCCOCCOCCOC[C@]12CO[C@H](O1)[C@H](NC(=O)C(F)(F)F)[C@@H](O)[C@H]2O)NC(=O)CCCOc1ccc2nc(-c3cn(-c4ccc(O)c(F)c4)nn3)ccc2c1)NCCOCCOCCOCCOC[C@]12CO[C@H](O1)[C@H](NC(=O)C(F)(F)F)[C@@H](O)[C@H]2O [MIF-AF2]
- depletion of MIF from the cell culture supernatant ([2]; 200 nM or 1 (μM), after 48 hours): ~100%
- depletion of MIF from cell culture supernatant [2]: effective at depleting MIF

Compound: CC(=O)NC1C(OCCOCCOCCNC(=O)CCOCC(COCCC(=O)NCCOCCOCCOC2OC(CO)C(O)C(O)C2NC(C)=O)(COCCC(=O)NCCOCCOCCOC2OC(CO)C(O)C(O)C2NC(C)=O)NC(=O)CNC(=O)COCCOCCNC(=O)CCCOc2ccc3nc(-c4cn(-c5ccc(O)c(F)c5)nn4)ccc3c2)OC(CO)C(O)C1O (stereo not drawn) [MIF-PEG2-GN3]
- depletion of exogenous MIF protein from supernatant ([2]; 24 hours, FIG. 128B): mediated MIF depletion across a range of concentrations
- depletion of human MIF from cell culture supernatant ([2]; 24 hours): effective at mediating the depletion of human MIF

Compound: CC(C)CC(=O)N[C@H](C(=O)N[C@H](C(=O)N[C@@H](CC(C)C)[C@@H](O)CC(=O)N[C@@H](C)C(=O)N[C@@H](CC(C)C)[C@@H](O)CC(=O)O)C(C)C)C(C)C [Pepstatin] (Isovaleryl-VV[Sta]A[Sta]-OH)
- inhibition of degradation of α-DNP antibody, repeat with selected conditions [1]: did not
- inhibition of α-DNP antibody degradation, triplicate [1]: did not significantly inhibit
- toxicity to cells [1]: toxic to cells
- inhibition of α-DNP antibody degradation, initial screen [1, 6]: not effective

Compound: CC(C)C[C@H](NC(=O)[C@H]1O[C@@H]1C(=O)O)C(=O)NCCCCN=C(N)N [Compound E64, E64]
- inhibition of degradation of α-DNP antibody, repeat with selected conditions [1]: inhibited degradation
- inhibition of α-DNP antibody degradation, triplicate [1]: inhibit α-DNP antibody degradation at all concentrations tested
- inhibition of α-DNP antibody degradation, initial screen [1, 6]: effective
